Data published in article PMC4767605 (Cancer chemotherapy and pharmacology, 2016).

Experiments:
[1] = test system: breast cancer (MDA-MB-231); assay: Breast cancer xenograft in mice, combination with paclitaxel; type: in vivo; settings: ASP9853 in combination with paclitaxel; MDA-MB-231 xenograft; data not shown
ovarian cancer (MCUAS) = assay: Ovarian cancer xenograft in mice, combination with paclitaxel; type: in vivo; settings: ASP9853 in combination with paclitaxel, data not shown
[2] = test system: human NSCLC cell line Calu-6; settings: ASP9853 alone, 100 mg/kg oral, twice daily
prostate cancer (PC-3) = assay: Prostate cancer xenograft in mice, combination with paclitaxel; type: in vivo; settings: ASP9853 in combination with paclitaxel; PC-3 xenograft; data not shown
advanced solid tumors = settings: ASP9853 + docetaxel

SMILES: O.O.O=C(/C=C/c1ccc(Cl)cc1)N[C@@H](Cc1ccccn1)C(=O)NCC(=O)N1CCC(Oc2cc(C(F)(F)F)ncn2)CC1 [ASP9853, (2E)-3-(4-chlorophenyl)-N-[(1S)-2-oxo-2-{[2-oxo-2-(4-{[6-(trifluoromethyl)-4-pyrimidinyl]oxy}-1-piperidinyl)ethyl]amino}-1-(2-pyridinylmethyl)ethyl]acrylamide dehydrate]
- Tumor growth inhibition [1]: greater tumor growth inhibition
- Tumor growth inhibition (ovarian cancer (MCUAS)): greater tumor growth inhibition
- Antitumor activity in the Calu-6 NSCLC xenograft model [2]: no antitumor activity
- Tumor growth inhibition (prostate cancer (PC-3)): greater tumor growth inhibition
- Duration of stable disease, mean (SD) (advanced solid tumors): 49.4 (47.2) days
- Duration of stable disease, median [range] (advanced solid tumors): 78 [1–133] days
- Patients with best overall response of stable disease (advanced solid tumors; Eight patients): 38.1%
- Objective radiographic responses (advanced solid tumors; eighteen patients evaluable): no objective radiographic responses were observed
